{
  "source": "patent US8748568B2",
  "about": "“Isolated A-type FHF N-terminal domain peptides and methods of use” (Research Foundation of The City University of New York, priority 2009, dated 2014)",
  "molecules": {"B1": {"name": "FHF2B: B-type fibroblast growth factor homologous factor expressed from a DNA expression vector (protein)", "chain": "MALLRKSYSEPQLKGIVTKLYSRQGYHLQLQADGTIDGTKDEDSTYTLFNLIPVGLRVVAIQGVQTKLYLAMNSEGYLYTSELFTPECKFKESVFENYYVTYSSMIYRQQQSGRGWYLGLNKEGEIMKGNHVKKNKPAAHFLPKPLKVAMYKEPSLHDLTEFSRSGSGTPTKSRSVSGVLNGGKSMSHNEST"}, "B2": {"name": "FHF1B: B-type fibroblast growth factor homologous factor expressed from a DNA expression vector (protein)", "chain": "MESKEPQLKGIVTRLFSQQGYFLQMHPDGTIDGTKDENSDYTLFNLIPVGLRVVAIQGVKASLYVAMNGEGYLYSSDVFTPECKFKESVFENYYVIYSSTLYRQQESGRAWFLGLNKEGQIMKGNRVKKTKPSSHFVPKPIEVCMYREPSLHEIGEKQGRSRKSSGTPTMNGGKVVNQDST"}, "B3": {"name": "FHF4B: B-type fibroblast growth factor homologous factor expressed from a DNA expression vector (protein)", "chain": "MVKPVPLFRRTDFKLLLCNHKDLFFLRVSKLLDCFSPKSMWFLWNIFSKGTHMLQCLCGKSLKKNKNPTDPQLKGIVTRLYCRQGYYLQMHPDGALDGTKDDSTNSTLFNLIPVGLRVVAIQGVKTGLYIAMNGEGYLYPSELFTPECKFKESVFENYYVIYSSMLYRQQESGRAWFLGLNKEGQAMKGNRVKKTKPAAHFLPKPLEVAMYREPSLHDVGETVPKPGVTPSKSTSASAIMNGGKPVNKSKTT"}},
  "key": {"TTX-resistant Nav1.6 [1]": {"tested_on": "TTX-resistant Nav1.6", "test": "Whole cell voltage clamp of Nav1.6 currents in Neuro2A cells: long-term inactivation through repeated depolarization cycles", "assay_type": "cell-based", "experimental": "[…]. Nav1.6 currents were analyzed in cells without FHFs (upper panels) or after transient transfection with a DNA vector expressing full-length FHF2A protein (lower panels). The holding voltage was −90 mV. Cells were subjected to two 6 millisecond depolarizations at 0 mV separated by −90 mV interpulse recovery periods of 0.5 to 20 msec (left panels). All 40 command sweeps are shown.\nNeuro2A cells expressing TTX-resistant Nav1.6 were transfected with DNA expression vectors for FHF1A, FHF1B, FHF2A, FHF2B, or FHF4B. Transfected cells in the presence of TTX were subjected to four 16 millisecond depolarization cycles (0 mV) separated by 40 millisecond recovery periods (−90 mV), and peak inward Nav1.6-mediated sodium currents were recorded for each depolarization.\nA Neuro2A cell expressing TTX-resistant Nav1.6 and transfected to express FHF2A was analyzed for the voltage dependence of steady state inactivation, long-term inactivation, and activation, using specific voltage command protocols. For steady state inactivation, cells were held at different “test command” voltages for 60 milliseconds followed immediately by further depolarization to 0 mV; the residual peak current derives from channels not inactivated (i.e. still available). For long term inactivation, cells were held at different “test command” voltages for 60 milliseconds, with each test command followed by 40 millisecond recovery at −90 mV before depolarization to 0 mV; peak current derives from channels that have not undergone long-term inactivation. For activation, cells were depolarized to different “test command” voltages, and peak inward currents were converted to percent maximum conductance to reflect percentage of channels transiently activated.\n(§1) Neuro2A cells expressing TTX-resistant Nav1.6 were analyzed for TTX-resistant sodium currents following whole cell patch clamp using pipette solution containing peptide corresponding to N-terminal residues 2-21 of FHF2A (referred to as ANTD, for A-type N-terminal domain). Peptide injected cells were subjected to four 16 millisecond depolarization cycles (0 mV) separated by 40 millisecond recovery periods (−90 mV), and peak inward Nav1.6-mediated sodium currents were recorded for each depolarization."}, "TTX-resistant Nav1.6 [2]": {"tested_on": "TTX-resistant Nav1.6", "test": "Voltage dependence of steady state inactivation of Nav1.6 in Neuro2A cells", "assay_type": "cell-based", "experimental": "A Neuro2A cell expressing TTX-resistant Nav1.6 and transfected to express FHF2A was analyzed for the voltage dependence of steady state inactivation, long-term inactivation, and activation, using specific voltage command protocols. For steady state inactivation, cells were held at different “test command” voltages for 60 milliseconds followed immediately by further depolarization to 0 mV; the residual peak current derives from channels not inactivated (i.e. still available). For long term inactivation, cells were held at different “test command” voltages for 60 milliseconds, with each test command followed by 40 millisecond recovery at −90 mV before depolarization to 0 mV; peak current derives from channels that have not undergone long-term inactivation. […]\nas §1"}, "[3]": {"tested_on": "cerebellar granule neurons", "test": "Voltage clamp and current clamp of cultured cerebellar granule neurons", "assay_type": "cell-based, Mouse", "settings": "1 mM peptide injected", "experimental": "Mouse cerebellar granule neurons were cultured for 14 days under conditions that promoted their maturation to a fully excitable state. These neurons were Whole cell patched and subjected to voltage clamp and current clamp protocols. In voltage clamp, neurons were depolarized four times for 16 milliseconds to 0 mV with 40 millisecond interpulse recoveries at −90 mV (left panels). In current clamp, positive current injection for 800 milliseconds was used to trigger firing of action potentials. A range of currents were tested, and only the recordings from currents giving highest frequency and amplitude of action potentials are shown (right panels)."}, "[4]": {"tested_on": "mutant VGSC in which the fast inactivation particle was disabled (Nav1.6)", "test": "Long-term inactivation of mutant VGSC with disabled fast inactivation particle, whole cell voltage clamp", "assay_type": "cell-based", "settings": "single cycle of membrane depolarization", "experimental": ". Nav1.6 currents were analyzed in cells without FHFs (left panels—FIG. 7) or after transient transfection with a DNA vector expressing full-length FHF2A protein (right panels—FIG. 7)."}, "[5]": {"settings": "four 16 msec depolarization cycles at 0 mV separated by 40 msec recoveries at -90 mV, cells transfected with FHF expression vector"}},
  "note": "“Also recorded” adds a separate entry of the source.",
  "data": [
    {"molecule": "AAAIASSLIRQKRQAREREK [ANTD peptide, peptide corresponding to N-terminal residues 2-21 of FHF2A]", "values": [
      {"measurement": "long-term inactivation of Nav1.6", "setting": "TTX-resistant Nav1.6 [1]; 0.5 mM peptide in pipette solution, four 16 msec depolarization cycles, 40 msec recoveries", "result": "induced long-term inactivation, albeit to lesser degree"},
      {"measurement": "long-term inactivation of Nav1.6", "setting": "TTX-resistant Nav1.6 [1]; 1 mM peptide in pipette solution, four 16 msec depolarization cycles, 40 msec recoveries", "result": "robust accumulation into long-term inactivation"},
      {"measurement": "dose dependence of peptide-induced long-term inactivation", "setting": "TTX-resistant Nav1.6 [1]; 1 mM versus 0.5 mM", "result": "dose dependent"},
      {"measurement": "onset of long-term inactivation", "setting": "TTX-resistant Nav1.6 [1]; 1 millimolar peptide, compared with native protein", "result": "faster onset of long-term inactivation than the native protein"},
      {"measurement": "effect on voltage dependence of steady state (fast) inactivation of Nav1.6", "setting": "TTX-resistant Nav1.6 [2]", "result": "no significant effect"},
      {"measurement": "action potentials generated upon current injection", "setting": "[3]; current clamp, 800 msec positive current injection", "result": "only a single action potential"},
      {"measurement": "inward sodium currents", "setting": "[3]; voltage clamp, four 16 msec depolarizations to 0 mV, 40 msec recoveries at -90 mV", "result": "decrease with each cycle of depolarization"},
      {"measurement": "outward potassium currents", "setting": "[3]; voltage clamp, four depolarization cycles", "result": "unaffected"},
      {"measurement": "channels driven into long-term inactivation", "setting": "[4]", "result": "nearly all"}
    ]},
    {"molecule": "FHF2A: full-length FHF2A protein, fibroblast growth factor homologous factor, expressed from a transfected DNA vector (AAAIASSLIRQKRQAREREK)", "values": [
      {"measurement": "percentage of channels that undergo long-term inactivation", "setting": "TTX-resistant Nav1.6 [1]; 60 msec test command, 40 msec recovery at -90 mV, then 0 mV, not increased by further depolarization", "result": "35-40%"},
      {"measurement": "long-term inactivation of Nav1.6", "setting": "TTX-resistant Nav1.6 [1]; [5]", "result": "induce long-term inactivation"},
      {"measurement": "long-term inactivation of Nav1.6", "setting": "TTX-resistant Nav1.6 [1]; four 16 msec depolarization cycles at 0 mV separated by 40 msec recoveries at -90 mV, cells transfected with FHF expression vector, listed as FHF2A protein", "result": "channels accumulate into a long-term inactivated state with each depolarization cycle; also recorded: induces both long-term inactivation"},
      {"measurement": "voltage at which long-term inactivation occurs relative to steady state inactivation", "setting": "TTX-resistant Nav1.6 [1]; test command voltage protocols, FHF2A-transfected cell", "result": "far more depolarized voltage than steady state inactivation"},
      {"measurement": "fraction of channels that do not rapidly recover from inactivation", "setting": "TTX-resistant Nav1.6 [1]; two 6 msec depolarizations at 0 mV, -90 mV interpulse recovery 0.5 to 20 msec, cells transfected with FHF vector", "result": "approximately one-third"},
      {"measurement": "effect on voltage dependence of steady state (fast) inactivation of Nav1.6", "setting": "TTX-resistant Nav1.6 [2]", "result": "depolarizing shift"},
      {"measurement": "channels driven into long-term inactivation", "setting": "[4]", "result": "nearly all channels being driven into long-term inactivation"}
    ]},
    {"molecule": "B1", "values": [
      {"measurement": "long-term inactivation of Nav1.6", "setting": "TTX-resistant Nav1.6 [1]; [5]", "result": "do not"}
    ]},
    {"molecule": "B2", "values": [
      {"measurement": "long-term inactivation of Nav1.6", "setting": "TTX-resistant Nav1.6 [1]; [5]", "result": "do not"}
    ]},
    {"molecule": "B3", "values": [
      {"measurement": "long-term inactivation of Nav1.6", "setting": "TTX-resistant Nav1.6 [1]; [5]", "result": "do not"}
    ]}
  ]
}
